Assay results: patent EP1242382B1, “TRICYCLIC PROTEIN KINASE INHIBITORS” (Wyeth, priority 1999, dated 2001)

Legend:
p60^c-src (Src) = molecular target: T1, p60^c-src (Src) (Homo sapiens, UniProt P12931); test: Src kinase test procedure (Elisa format); type: biochemical
T1 construct: purchased Upstate Biotechnologies
Method: Inhibitors of p60^c-src (partially purified preparation purchased from Upstate Biotechnologies) tyrosine kinase activity are analyzed in an Elisa format. […] HRP-conjugated anti-phosphotyrosine is used to detect phosphorylated peptide via a color reaction. Conditions recommended by the manufacturer are employed.
Reaction conditions: Five microliter aliquots of each compound prepared fresh at the time of the assay are added as a solution in 10mM HEPES pH 7.5, 10% DMSO to the reaction well. Thirty-five microliters of reaction mix containing Src, buffer and peptide/bovine serum albumin mix are added to the compound wells and incubated at 30°C for 10 minutes (reaction buffer: 50mM TrisHCl pH 7.5, 10mM MgCl2, 0.1mM EGTA, 0.5mM Na3VO4). The reaction is started by addition of 10 microliters of ATP, incubated at 30°C for 1 hour, and stopped by addition of 20 microliters of 0.5M EDTA. The reaction mixture with the phosphorylated peptide is then transferred to a streptavidin-coated microtiter plate (provided in the kit) and allowed to bind for 20 minutes. Unbound peptide and reaction mixture is decanted and the plate is washed with PBS six times. Horseradish peroxidase-conjugated phosphotyrosine antibody supplied in the kit is incubated with the plate for one hour, then decanted. The plate is again washed with PBS six times.

[1] = test system: Rat2 fibroblasts stably transformed with v-Src/Hu c-Src fusion gene; test: Anchorage independent Src-transformed fibroblast proliferation test procedure; type: cell-based; settings: Rattus norvegicus; for IC50: the 3rd table c6, (a)-(d) = average of two to five runs, read-out: Src TF prolif IC50
Text: Anchorage Independent Src-transformed Fibroblast Proliferation Test Procedure: Rat2 fibroblasts stably transformed with a plasmid containing a CMV promotor controlled v-Src/Hu c-Src fusion gene in which the catalytic domain of human c-Src is inserted in place of the v-Src catalytic domain in the v-Src gene are used for the measurement of src dependent suspension growth.

Raf-1 (c-Raf) = molecular target: T2, Raf-1 (c-Raf) (Homo sapiens, UniProt P04049); test: Raf1 kinase cascade assay procedure; type: biochemical
T2 construct: Sf9 insect cell lysate containing full length 6his-tagged recombinant human c-Raf; host or cells: c-Raf: Sf9 insect cell lysate; MEK1 and MAPK: E. coli
Method: (Specific Activity: ~200U/ml). Human Non-active Mek-1-GST and human GST-MAP kinase (recombinant proteins produced in E. coli).
• 1. Assay Dilution Buffer (ADB): 20mM MOPS, pH 7.2, 25mM β-glycerol phosphate, 5mM EGTA, 1mM sodium orthovanadate, 1mM dithiothreitol. • 2. Magnesium/ATP Cocktail: 500µM cold ATP and 75 mM magnesium chloride in ADB. • 4. Active Kinase: Human Active c-Raf: Use at 0.4U per assay point • 5. Non-active GST-MEK1: Use at 0.1µg per assay point. • 6. Non-active GST-p42 MAP Kinase: Use at 1.0 µg per assay point
• 1. TBST - Tris (50 mM, pH 7.5), NaCl (150 mM), Tween-20 (0.05 %) • 2. Superblock (Pierce) • 3. Anti-GST Ab (Pharmacia) • 4. Anti-Phospho MAPK (Sigma) • 5. Anti-Mouse Ab / Europium conjugate (Wallac)
First Stage: c-Raf Dependent Activation of GST-MEK and GST-MAPK • 1. Add […] of ADB per assay (i.e. per well of a 96 well plate) • 2. Add 10 ml of 0.5 mM cold ATP and 75 mM magnesium chloride in ADB. • 3. Add 2 ml of c-Raf (0.4U/assay), in conjunction with 1.6ml non-active MEK1 ([…]). • 4. Add 4 ml of non-active GST-p42 MAP Kinase (1.0 mg/assay). • 5. Incubate for 60 minutes at 30°C in a shaking incubator. • 6. Transfer this mixture to an anti-GST Ab coated 96 well plate (Nunc Immunosorb plates coated o/n with a-GST, then blocked with Pierce Superblock). • 7. Incubate for 60 minutes at 30°C in a shaking incubator Wash 3X with TBST, add Anti-Phospho MAPK (Sigma) (1:3000) • 6. Incubate for 60 minutes at 30°C in a shaking incubator • 7. Wash 3X with TBST, add Anti-Mouse Ab / Europium conjugate (Wallac) (1:500) • 8. Incubate for 60 minutes at 30°C in a shaking incubator • 9. Wash 3X with TBST, Read plates in Wallac Victor model Plate Reader. • 10. Collect data analyze in Excel for single point and IC50 determinations.
Typically Raf-1 assay is run at compound concentrations from 10 µM to 1 nM in half log dilutions. (% inhibition is determined for each compound concentration).

T1 sequence (P12931 whole entry): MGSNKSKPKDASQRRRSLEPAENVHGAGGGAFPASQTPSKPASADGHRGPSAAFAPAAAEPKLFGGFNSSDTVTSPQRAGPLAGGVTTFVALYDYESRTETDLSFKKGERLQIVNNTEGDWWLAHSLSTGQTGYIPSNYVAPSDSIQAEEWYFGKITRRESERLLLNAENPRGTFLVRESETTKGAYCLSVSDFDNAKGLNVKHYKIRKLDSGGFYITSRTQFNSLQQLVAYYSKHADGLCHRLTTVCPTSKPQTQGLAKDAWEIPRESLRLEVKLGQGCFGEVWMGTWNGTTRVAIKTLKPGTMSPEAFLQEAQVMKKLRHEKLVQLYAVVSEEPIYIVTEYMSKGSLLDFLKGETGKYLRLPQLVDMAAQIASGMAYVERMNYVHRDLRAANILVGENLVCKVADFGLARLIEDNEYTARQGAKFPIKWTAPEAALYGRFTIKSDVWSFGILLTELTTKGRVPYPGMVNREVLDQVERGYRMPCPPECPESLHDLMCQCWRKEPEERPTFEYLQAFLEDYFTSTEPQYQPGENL
T2 sequence (P04049 whole entry): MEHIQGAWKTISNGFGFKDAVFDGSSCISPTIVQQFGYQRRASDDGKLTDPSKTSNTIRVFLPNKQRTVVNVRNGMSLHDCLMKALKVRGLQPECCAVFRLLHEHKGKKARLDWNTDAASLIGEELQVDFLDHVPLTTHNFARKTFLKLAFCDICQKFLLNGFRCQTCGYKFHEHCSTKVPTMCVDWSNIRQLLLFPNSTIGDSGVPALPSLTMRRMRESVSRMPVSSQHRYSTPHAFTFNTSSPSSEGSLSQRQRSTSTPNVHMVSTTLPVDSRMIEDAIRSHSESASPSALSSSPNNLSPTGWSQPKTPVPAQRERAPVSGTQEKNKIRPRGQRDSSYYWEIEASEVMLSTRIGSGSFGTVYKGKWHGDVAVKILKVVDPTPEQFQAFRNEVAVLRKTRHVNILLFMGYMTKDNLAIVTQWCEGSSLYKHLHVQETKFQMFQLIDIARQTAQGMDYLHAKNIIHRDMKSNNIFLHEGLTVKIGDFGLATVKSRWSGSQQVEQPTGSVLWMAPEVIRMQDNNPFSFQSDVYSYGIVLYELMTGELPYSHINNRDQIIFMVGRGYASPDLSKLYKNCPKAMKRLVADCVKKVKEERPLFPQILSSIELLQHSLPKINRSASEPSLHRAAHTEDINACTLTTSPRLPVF

Q: For `COc1ccc2cc3c(Nc4ccc(Cl)cc4Cl)c(C#N)cnc3cc2c1` [Example 104, 4-(2,4-dichloroanilino)-8-methoxybenzo[g]quinoline-3-carbonitrile], which inhibition at 0.1 µM (p60^c-src (Src); read-out: Src %Inh) is on record?
A: The inhibition at 0.1 µM was 30%.

Q: `COc1cc(Nc2c(C#N)cnc3cc4cc(OCCCN5CCOCC5)c(OC)cc4cc23)c(Cl)cc1Cl` [Example 157, 4-(2,4-dichloro-5-methoxyphenylamino)-7-methoxy-8-(3-morpholin-4-yl-propoxy)benzo[g]quinoline-3-carbonitrile] was tested. Which IC50 [1] did it give?
A: Its IC50 is 0.038 µM.

Q: Which IC50 [1] does the source give for `COc1cc(Nc2c(C#N)cnc3nc4cc(OC)c(OC)cc4cc23)c(Cl)cc1Cl` [Example 165, 4-(2,4-Dichloro-5-methoxyanilino)-7,8-dimethoxybenzo[b] [1,8]naphthyridine-3-carbonitrile] here?
A: The IC50 was greater than 10 µM.

Q: How did the inhibition at 10 µM ([1]; @ dose 10 µM, read-out: Src TF prolif %Inh) turn out when `COc1cc(Nc2c(C#N)cnc3cc4c(cc23)ncn4CCN2CCOCC2)c(C)cc1Cl` [Example 57, 8-(4-Chloro-5-methoxy-2-methylanilino)-3-[2-(4-morpholinyl)ethyl]-3H-imidazo[4,5-g]quinline-7-carbonitrile] was run?
A: Its inhibition at 10 µM is 0%.

Q: How did the IC50 [1] turn out when `COc1cc(Nc2c(C#N)cnc3cc4cc(OC)c(OCCN5CCOCC5)cc4cc23)c(Cl)cc1F` [Example 209, 4-(2-Chloro-4-fluoro-5-methoxyanilino)-8-methoxy-7-[2-(4-morpholinyl)ethoxy]benzo[g]quinoline-3-carbonitrile] was run?
A: The IC50 was 0.309 µM.

Q: For `COc1cc(Nc2c(C#N)cnc3cc4cc(OC)c(OCCN5CCN(C)CC5)cc4cc23)c(Cl)cc1F` [Example 201, 4-(2-Chloro-4-fluoro-5-methoxyanilino)-8-methoxy-7-[2-(4-methyl-1-piperazinyl)ethoxy]benzo[g]quinoline-3-carbonitrile], which IC50 [1] is on record?
A: Its IC50 is 0.175 µM.

Q: `COc1cc(Nc2c(C#N)cnc3nc4cc(OCCCl)c(OC)cc4cc23)c(Cl)cc1Cl` [Example 172, 8-(2-Chloroethoxy)-4-(2,4-dichloro-5-methoxyanilino)-7-methoxybenzo[b][1,8]naphthyridine-3-carbonitrile] was tested. Which IC50 [1] did it give?
A: Its IC50 is 1.88 µM.

Q: `COc1cc(Nc2c(C#N)cnc3cc4cc(OCCN5CCOCC5)c(OC)cc4cc23)c(Cl)cc1Cl` [Example 129, 4-(2,4-dichloro-5-methoxyanilino)-7-methoxy-8-[2-(4-morpholinyl)ethoxy]benzo[g]quinoline-3-carbonitrile] was tested. Which IC50 (Raf-1 (c-Raf)) did it give?
A: Its IC50 is 0.3 µM.

Q: For `COc1cc(Nc2c(C#N)cnc3nc4cc(OCCN5CCOCC5)c(OC)cc4cc23)c(Cl)cc1Cl` [Example 173, 4-(2,4-Dichloro-5-methoxyanilino)-7-methoxy-8-[2-(4-morpholinyl)ethoxy]benzo[b][1,8]naphthyridine-3-carbonitrile], which inhibition at 0.1 µM (p60^c-src (Src); read-out: Src %Inh) is on record?
A: Its inhibition at 0.1 µM is 33%.

Q: And the IC50 [1]?
A: Its IC50 is 3.74 µM.

Q: Which IC50 [1] does the source give for `COc1cc(Nc2c(C#N)cnc3cc4cc(OC)c(OCCN5CCN(C)CC5)cc4cc23)c(Cl)cc1C` [Example 202, 4-(2-Chloro-5-methoxy-4-methylanilino)-8-methoxy-7-[2-(4-methyl-1-piperazinyl)ethoxy]benzo[g]quinoline-3-carbonitrile] here?
A: Its IC50 is 0.068 µM.

Q: Which inhibition at 10 µM (p60^c-src (Src); dose 10 µM, read-out: Src %Inh) does the source give for `COc1cc(Nc2c(C#N)cnc3c2sc2ccc([N+](=O)[O-])cc23)c(C)cc1Cl` [Example 75, 4-(4-Chloro-5-methoxy-2-methylphenylamino)-8-nitrobenzo[4,5]thieno[3,2-b]pyridine-3-carbonitrile] here?
A: The inhibition at 10 µM was 0%.

Q: `COc1cc(Nc2c(C#N)cnc3cc4cc(OCCN5CCN(C)CC5)c(OC)cc4cc23)c(Cl)cc1F` [Example 211, 4-(2-Chloro-4-fluoro-5-methoxyanilino)-7-methoxy-8-[2-(4-methyl-1-piperazinyl)ethoxy]benzo[g]quinoline-3-carbonitrile] was tested. Which IC50 [1] did it give?
A: Its IC50 is 0.128 µM.

Q: For `COc1cc(Nc2c(C#N)cnc3cc4cc(OCCN5CCN(C)CC5)c(OC)cc4cc23)c(Cl)cc1C` [Example 203, 4-(2-Chloro-5-methoxy-4-methylanilino)-7-methoxy-8-[2-(4-methyl-1-piperazinyl)ethoxy]benzo[g]quinoline-3-carbonitrile], which IC50 [1] is on record?
A: Its IC50 is 0.071 µM.

Q: `COc1cc(Nc2c(C#N)cnc3cc4cc(OCCn5nccn5)c(OC)cc4cc23)c(Cl)cc1Cl` [Example 158, 4-(2,4-Dichloro-5-methoxyphenylamino)-7-methoxy-8-(2-[1,2,3]triazol-2-yl-ethoxy)benzo[g]quinoline-3-carbonitrile] was tested. Which IC50 [1] did it give?
A: The IC50 was 0.067 µM.

Q: Which inhibition at 5 µM (p60^c-src (Src); dose 5 µM, read-out: Src %Inh) does the source give for `COc1cc2cc3c(Nc4ccc(Cl)cc4Cl)c(C#N)cnc3nc2cc1OC` [Example 177, 4-(2,4-Dichloroanilino)-7,8-dimethoxybenzo[b] [1,8]naphthyridine-3-carbonitrile] here?
A: The inhibition at 5 µM was 30%.

Q: Which IC50 [1] does the source give for `CCOc1cc2cc3c(Nc4cc(OC)c(Cl)cc4C)c(C#N)cnc3cc2cc1OCCN(CC(N)=O)CC(N)=O` [Example 194, 2-(Carbamoylmethyl-{2-[4-(4-chloro-5-methoxy-2-methylphenylamino)-3-cyano-7-ethoxybenzo[g]quinolin-8-yloxy]-ethyl}-amino)-acetamide] here?
A: Its IC50 is greater than 10 µM.

Q: For `N#Cc1cnc2cc3ccccc3cc2c1Nc1ccc(Oc2ccccc2)cc1` [Example 3, 4-(4-Phenoxyanilino)benzo[g]quinoline-3-carbonitrile], which IC50 (Raf-1 (c-Raf)) is on record?
A: The IC50 was 0.09 µM.

Q: Which results are given for `N#Cc1cnc2c(oc3ccccc32)c1Nc1ccc(Cl)cc1F` [Example 86, 4-(4-Chloro-2-fluorophenylamino)benzo[4,5]furo[3,2-b]pyridine-3-carbonitrile]?
A: Src %Inh (p60^c-src (Src); dose 10 µM): 46%; inhibition at 10 µM (p60^c-src (Src); dose 10 µM, read-out: Src %Inh): 54%

Q: Which inhibition at 0.1 µM (p60^c-src (Src); read-out: Src %Inh) does the source give for `COc1ccc2cc3ncc(C#N)c(Nc4ccc(Cl)cc4Cl)c3cc2c1` [Example 103, 4-(2,4-Dichloroanilino)-7-methoxybenzo[g]quinoline-3-carbonitrile] here?
A: The inhibition at 0.1 µM was 30%.

Q: For `COc1cc(Nc2c(C#N)cnc3cc4cc(OCCn5ccnn5)c(OC)cc4cc23)c(Cl)cc1Cl` [Example 159, 4-(2,4-Dichloro-5-methoxyphenylamino)-7-methoxy-8-(2-[1,2,3]triazol-1-yl-ethoxy)benzo[g]quinoline-3-carbonitrile], which IC50 [1] is on record?
A: Its IC50 is 0.073 µM.

Q: Which IC50 [1] does the source give for `CCOc1cc2cc3c(Nc4cc(OC)c(Cl)cc4C)c(C#N)cnc3cc2cc1OCCN1CCOCC1` [Example 191, 4-(4-Chloro-5-methoxy-2-methylanilino)-7-ethoxy-8-[2-(4-morpholinyl)ethoxy]benzo[g]quinoline-3-carbonitrile] here?
A: Its IC50 is 0.022 µM.

Q: Which IC50 [1] does the source give for `CCOc1cc2cc3ncc(C#N)c(Nc4cc(OC)c(Cl)cc4C)c3cc2cc1OCCN1CCOCC1` [Example 190, 4-(4-Chloro-5-methoxy-2-methylanilino)-8-ethoxy-7-[2-(4-morpholinyl)ethoxy]benzo[g]quinoline-3-carbonitrile] here?
A: Its IC50 is 0.17 µM.

Q: Which IC50 [1] does the source give for `COc1cc(Nc2c(C#N)cnc3cc4cc(OC)c(OCCN5CCC(O)CC5)cc4cc23)c(Cl)cc1C` [Example 207, 4-(2-Chloro-5-methoxy-4-methylanilino)-8-methoxy-7-[2-(4-hydroxy-1-piperidinyl)ethoxy]benzo[g]quinoline-3-carbonitrile] here?
A: Its IC50 is 0.929 µM.
